According to patent US4567143A, “Process for preparing 4'-deschlororebeccamycin” (Bristol-Myers Company, priority 1985, dated 1986):
Values after ≈ are worked out from the molar mass of the structure shown.

Experiments:
[1] = test system: S. aureus (Pen-Res) A9606; assay: Antibacterial activity, serial two-fold agar dilution; assay type: cell-based; conditions: Staphylococcus aureus, read-out: Minimum Inhibitory Concentration (MIC)
Procedure: (§1) The antibacterial activity of 4'-deschlororebeccamycin was determined against a number of gram-positive and gram-negative organisms by the serial two-fold agar dilution method. The results are shown in Table 5 below in comparison with the activity of rebeccamycin.

S. pyogenes A9604 = assay: as above; assay type: cell-based; conditions: Streptococcus pyogenes, read-out: Minimum Inhibitory Concentration (MIC)
Procedure: as §1

P. aeruginosa A21213 = assay: as above; assay type: cell-based; conditions: Pseudomonas aeruginosa, read-out: Minimum Inhibitory Concentration (MIC)
Procedure: as §1

S. pneumoniae A9585 = assay: as above; assay type: cell-based; conditions: Streptococcus pneumoniae, read-out: Minimum Inhibitory Concentration (MIC)
Procedure: as §1

S. marcescens A20019 = assay: as above; assay type: cell-based; conditions: Serratia marcescens, read-out: Minimum Inhibitory Concentration (MIC)
Procedure: as §1

S. coli A20341-1 = assay: as above; assay type: cell-based; conditions: read-out: Minimum Inhibitory Concentration (MIC)
Procedure: as §1

S. aureus A9537 = assay: as above; assay type: cell-based; conditions: Staphylococcus aureus, read-out: Minimum Inhibitory Concentration (MIC)
Procedure: as §1

E. cloacae A9656 = assay: as above; assay type: cell-based; conditions: Enterobacter cloacae, read-out: Minimum Inhibitory Concentration (MIC)
Procedure: as §1

P. aeruginosa A9843A = assay: as above; assay type: cell-based; conditions: Pseudomonas aeruginosa, read-out: Minimum Inhibitory Concentration (MIC)
Procedure: as §1

[2] = test system: List. monocytogenes A20025; assay: as above; assay type: cell-based; conditions: Listeria monocytogenes, read-out: Minimum Inhibitory Concentration (MIC)
Procedure: as §1

K. pneumoniae A20468 = assay: as above; assay type: cell-based; conditions: Klebsiella pneumoniae, read-out: Minimum Inhibitory Concentration (MIC)
Procedure: as §1

M. morganii A15153 = assay: as above; assay type: cell-based; conditions: Morganella morganii, read-out: Minimum Inhibitory Concentration (MIC)
Procedure: as §1

K. pneumoniae A9664 = assay: as above; assay type: cell-based; conditions: Klebsiella pneumoniae, read-out: Minimum Inhibitory Concentration (MIC)
Procedure: as §1

P. rettgeri A22424 = assay: as above; assay type: cell-based; conditions: Providencia rettgeri, read-out: Minimum Inhibitory Concentration (MIC)
Procedure: as §1

P. mirabilis A9900 = assay: as above; assay type: cell-based; conditions: Proteus mirabilis, read-out: Minimum Inhibitory Concentration (MIC)
Procedure: as §1

S. faecalis A20688 = assay: as above; assay type: cell-based; conditions: Enterococcus faecalis, read-out: Minimum Inhibitory Concentration (MIC)
Procedure: as §1

[3] = test system: List. monocytogenes A15121; assay: as above; assay type: cell-based; conditions: Listeria monocytogenes, read-out: Minimum Inhibitory Concentration (MIC)
Procedure: as §1

P. vulgaris A21559 = assay: as above; assay type: cell-based; conditions: Proteus vulgaris, read-out: Minimum Inhibitory Concentration (MIC)
Procedure: as §1

E. cloacae A9659 = assay: as above; assay type: cell-based; conditions: Enterobacter cloacae, read-out: Minimum Inhibitory Concentration (MIC)
Procedure: as §1

M. luteus A9547 = assay: as above; assay type: cell-based; conditions: Micrococcus luteus, read-out: Minimum Inhibitory Concentration (MIC)
Procedure: as §1

S. coli A15119 = assay: as above; assay type: cell-based; conditions: read-out: Minimum Inhibitory Concentration (MIC)
Procedure: as §1

P-388 leukemia = assay: Effect on transplanted mouse leukemia P-388; assay type: in vivo, mouse (CDF1 F mice); conditions: IP, single injection day 1; for MST % T/C: >125 considered significant tumor inhibition; for Average weight change, day 5: control 0.6; for MST (median survival time): control 11.0
Procedure: 4'-Deschlororebeccamycin was also tested against the transplanted mouse leukemia P-388 and the results are shown below in Table 6. The methodology used generally followed the protocols of the National Cancer Institute [Cancer Chemotherapy Rep. Part 3, 3, 1-103 (1972)]. The essential experimental details are given at the bottom of Table 6.
Tumor inoculum: 10^6 ascites cells, ip
Treatment: Single injection on day 1 given i.p.
Evaluation: MST = median survival time
Effect: % T/C = (MST treated/MST control) × 100
Criteria: % T/C >125 considered significant tumor inhibition
Control: Saline (0.5 ml) given once daily i.p. for 5 days

[4] = test system: gram-positive and gram-negative organisms; assay: Antimicrobial activity (general statement); assay type: cell-based
Procedure: as §1

Solubility = assay type: physicochemical

## CO[C@H]1[C@H](O)[C@@H](O)[C@H](n2c3c(Cl)cccc3c3c4c(c5c6cccc(Cl)c6[nH]c5c32)C(=O)NC4=O)O[C@@H]1CO [Rebeccamycin]
[1]
  MIC: > 250 µg/mL
S. pyogenes A9604
  MIC: > 125 µg/mL
P. aeruginosa A21213
  MIC: > 250 µg/mL
S. pneumoniae A9585
  MIC: > 125 µg/mL
S. marcescens A20019
  MIC: > 250 µg/mL
S. coli A20341-1
  MIC: > 250 µg/mL
S. aureus A9537
  MIC: 0.5 µg/mL (≈ 0.877 µM)
E. cloacae A9656
  MIC: > 250 µg/mL
P. aeruginosa A9843A
  MIC: > 250 µg/mL
[2]
  MIC: 32 µg/mL (≈ 56.1 µM)
K. pneumoniae A20468
  MIC: > 250 µg/mL
M. morganii A15153
  MIC: > 250 µg/mL
K. pneumoniae A9664
  MIC: > 250 µg/mL
P. rettgeri A22424
  MIC: > 250 µg/mL
P. mirabilis A9900
  MIC: > 250 µg/mL
S. faecalis A20688
  MIC: 8 µg/mL (≈ 14 µM)
[3]
  MIC: 32 µg/mL (≈ 56.1 µM)
P. vulgaris A21559
  MIC: > 250 µg/mL
E. cloacae A9659
  MIC: > 250 µg/mL
M. luteus A9547
  MIC: 0.5 µg/mL (≈ 0.877 µM)
S. coli A15119
  MIC: > 250 µg/mL
P-388 leukemia; 16 mg/kg/inj
  MST % T/C: 136%
  Average weight change, day 5: -0.8 gm
  MST (median survival time): 15.0 days
P-388 leukemia; 32 mg/kg/inj
  MST % T/C: 118%
  Average weight change, day 5: -0.6 gm
  MST (median survival time): 13.0 days
P-388 leukemia; 64 mg/kg/inj
  MST % T/C: 136%
  Average weight change, day 5: 0.3 gm
  MST (median survival time): 15.0 days
P-388 leukemia; 128 mg/kg/inj
  MST % T/C: 132%
  Average weight change, day 5: 0.2 gm
  MST (median survival time): 14.5 days
P-388 leukemia; 256 mg/kg/inj
  MST % T/C: 136%
  Average weight change, day 5: -0.3 gm
  MST (median survival time): 15.0 days
P-388 leukemia; 512 mg/kg/inj
  MST % T/C: 155%
  Average weight change, day 5: -1.4 gm
  MST (median survival time): 17.0 days

## COC1C(CO)OC(n2c3c(Cl)cccc3c3c4c(c5c6ccccc6[nH]c5c32)C(=O)NC4=O)C(O)C1O (stereo not drawn) [4'-Deschlororebeccamycin]
[4]
  antimicrobial activity: exhibits antimicrobial activity
[1]
  MIC: > 250 µg/mL
S. pyogenes A9604
  MIC: 32 µg/mL (≈ 59.7 µM)
P. aeruginosa A21213
  MIC: > 250 µg/mL
S. pneumoniae A9585
  MIC: 32 µg/mL (≈ 59.7 µM)
S. marcescens A20019
  MIC: > 250 µg/mL
S. coli A20341-1
  MIC: > 250 µg/mL
S. aureus A9537
  MIC: 2 µg/mL (≈ 3.73 µM)
E. cloacae A9656
  MIC: > 250 µg/mL
P. aeruginosa A9843A
  MIC: > 250 µg/mL
[2]
  MIC: 63 µg/mL (≈ 118 µM)
K. pneumoniae A20468
  MIC: > 250 µg/mL
M. morganii A15153
  MIC: > 250 µg/mL
K. pneumoniae A9664
  MIC: > 250 µg/mL
P. rettgeri A22424
  MIC: > 250 µg/mL
P. mirabilis A9900
  MIC: > 250 µg/mL
S. faecalis A20688
  MIC: 16 µg/mL (≈ 29.9 µM)
[3]
  MIC: 32 µg/mL (≈ 59.7 µM)
P. vulgaris A21559
  MIC: > 250 µg/mL
E. cloacae A9659
  MIC: > 250 µg/mL
M. luteus A9547
  MIC: 1 µg/mL (≈ 1.87 µM)
S. coli A15119
  MIC: > 250 µg/mL
Solubility; dimethylsulfoxide
  solubility in dimethylsulfoxide: soluble
Solubility; water
  solubility in water: insoluble
P-388 leukemia; 16 mg/kg/inj
  MST % T/C: 164%
  Average weight change, day 5: -0.9 gm
  MST (median survival time): 18.0 days
P-388 leukemia; 32 mg/kg/inj
  MST % T/C: 141%
  Average weight change, day 5: -0.8 gm
  MST (median survival time): 15.5 days
P-388 leukemia; 64 mg/kg/inj
  MST % T/C: 136%
  Average weight change, day 5: -0.8 gm
  MST (median survival time): 15.0 days
P-388 leukemia; 128 mg/kg/inj
  MST % T/C: 159%
  Average weight change, day 5: -0.6 gm
  MST (median survival time): 17.5 days
P-388 leukemia; 256 mg/kg/inj
  MST % T/C: 136%
  Average weight change, day 5: -1.5 gm
  MST (median survival time): 15.0 days
P-388 leukemia; 512 mg/kg/inj
  MST % T/C: 141%
  Average weight change, day 5: -1.0 gm
  MST (median survival time): 15.5 days
